Test results taken from patent US10208152B2, “Poly(ethylene glycol)-b-poly(halomethylstyrene), derivative thereof, and method for producing same” (priority 2014, dated 2019).
Where two headings read alike, the source gives them in different places.

Test system: acetaminophen-induced hepatotoxicity
Conditions: for Prothrombin time (indicator of hepatic function): FIG. 17
Experimental: Group 1: Untreated control (4 mice in this group only)
Group 2: 3 mg/kg of acetaminophen administered orally on the 7th day from the start of the test
Group 3: 1 mL of the blank micelles (6.25 mg/mL, 160 mg/kg) synthesized in Example 21 forcibly administered once per day via a feeding tube, 3 m g/kg of acetaminophen administered orally on the 7th day from the start of the test.
Group 5: 170 mg/kg of 4-amino-TEMPO forcibly administered once per day via a feeding tube, 3 mg/kg of acetaminophen administered orally on the 7th day from the start of the test.
Group 6: 600 mg/kg of acetylcysteine forcibly administered once per day via a feeding tube, 3 mg/kg of acetaminophen administered orally on the 7th day from the start of the test.

[1] = 6 mice before test, substance once per day by feeding tube (newRNP^N Example 16, m=13, 160 mg/kg; 4-amino-TEMPO 170 mg/kg; acetylcysteine 600 mg/kg), 3 mg/kg acetaminophen orally on 7th day
[2] = oral once per day, 3 mg/kg acetaminophen on 7th day, newRNP^N m=13

## CC1(C)CC(N)CC(C)(C)N1[O] [4-amino-TEMPO]
[1]
  Numbers of mice alive, After test: 2
[2]
  Prothrombin time (indicator of hepatic function): extended
Oral once per day, 3 mg/kg acetaminophen on 7th day, newRNP^N m=13, FIGS. 19 to 22
  Toxicity by albumin quantity and AST, ALT and ALP enzyme levels: extremely high toxicity

## CC(=O)Nc1ccc(O)cc1 [acetaminophen]
IGS, mouse, in vivo, po, 3 mg/kg, 1 day
  Numbers of mice alive, After test: 2
Acetaminophen alone, 3 mg/kg orally (group 2)
  Share of mice that died within 1 day: two thirds
Oral once per day, 3 mg/kg acetaminophen on 7th day, newRNP^N m=13, FIG. 18
  Superoxide dismutase (SOD) production: significant decrease

## CC(=O)N[C@@H](CS)C(=O)O [acetylcysteine]
[1]
  Numbers of mice alive, After test: 4
[2]
  Prothrombin time (indicator of hepatic function): extended
